What all share (assay type): biochemical
The target of assay [1] is cdk2/Cyclin A (Homo sapiens, UniProt P24941). The assay is described as follows: Inhibition assay of cdk2/Cyclin A activity (SPA). The settings on record: 10 µM ATP, 60 min at room temperature. As for the experimental part: (§1) The inhibiting activity of putative cdk/cyclin inhibitors and the potency of selected compounds is determined through a method of assay based on the use of the SPA technology (Amersham Pharmacia Biotech).
(§2) The assay consists of the transfer of radioactivity labelled phosphate moiety by the kinase to a biotinylated substrate. The resulting 33P-labelled biotinylated product is allowed to bind to streptavidin-coated SPA beads (biotin capacity 130 pmol/mg), and light emitted was measured in a scintillation counter.
Inhibition assay of cdk2/Cyclin A activity
Kinase reaction: 4 µM in house biotinylated histone H1 (Sigma # H-5505) substrate, 10 µM ATP (0.1 microCi P^33γ-ATP), 1.1 nM Cyclin A/CDK2 complex, inhibitor in a final volume of 30 µl buffer (TRIS HCl 10 mM pH 7.5, MgCl2 10 mM, DTT 7.5 mM + 0.2 mg/ml BSA) were added to each well of a 96 U bottom. After incubation for 60 min at room temperature, the reaction was stopped by addition of 100 µl PBS buffer containing 32 mM EDTA, 500 µM cold ATP, 0.1% Triton X100 and 10mg/ml streptavidin coated SPA beads. After 20 min incubation, 110 µL of suspension were withdrawn and transferred into 96-well OPTIPLATEs containing 100 µl of 5M CsCl. After 4 hours, the plates were read for 2 min in a Packard TOP-Count radioactivity reader.
(§3) Experimental data were analyzed by the computer program GraphPad Prizm using the four parameter logistic equation: [formula] where x is the logarithm of the inhibitor concentration, y is the response; y starts at bottom and goes to top with a sigmoid shape.

Assay [2] addresses Cdc7/dbf4 (Homo sapiens, UniProt O00311). The experiment in a line: Inhibition assay of Cdc7/dbf4 activity (SPA). The settings on record: 2 µM ATP, 60 minutes at 37°C. As to the method: Inhibition assay of Cdc7/dbf4 activity
The inhibition assay of Cdc7/dbf4 activity is performed according to the following protocol.
The Biotin-MCM2 substrate is trans-phosphorylated by the Cdc7/Dbf4 complex in the presence of ATP traced with γ^33-ATP. The phosphorylated Biotin-MCM2 substrate is then captured by Streptavidin-coated SPA beads and the extent of phosphorylation evaluated by β counting.
The inhibition assay of Cdc7/dbf4 activity was performed in 96 wells plate according to the following protocol.
To each well of the plate were added: • 10 µl substrate (biotinylated MCM2, 6 µM final concentration) • 10 µl enzyme (Cdc7/Dbf4, 17.9 nM final concentration) • 10 µl test compound (12 increasing concentrations in the nM to µM range to generate a dose-response curve) • 10 µl of a mixture of cold ATP (2 µM final concentration) and radioactive ATP (1/5000 molar ratio with cold ATP) was then used to start the reaction which was allowed to take place at 37°C.
Substrate, enzyme and ATP were diluted in 50 mM HEPES pH 7.9 containing 15 mM MgCl2, 2 mM DTT, 3 µM NaVO3, 2mM glycerophosphate and 0.2mg/ml BSA. The solvent for test compounds also contained 10% DMSO.
After incubation for 60 minutes, the reaction was stopped by adding to each well 100 µl of PBS pH 7.4 containing 50 mM EDTA, 1 mM cold ATP, 0.1% Triton X100 and 10 mg/ml streptavidin coated SPA beads.
After 20 min incubation, 110 µL of suspension were withdrawn and transferred into 96-well OPTIPLATEs containing 100 µl of 5M CsCl. After 4 hours, the plates were read for 2 min in a Packard TOP-Count radioactivity reader.
IC50 determination: see above.

Assay [3] has as its target PAK4 (Homo sapiens, UniProt O96013). The experiment in a line: PAK4 inhibition.
For assay [4], the target named is T1, Aurora-2 (Homo sapiens, UniProt O14965).
T1 sequence (O14965 1-403): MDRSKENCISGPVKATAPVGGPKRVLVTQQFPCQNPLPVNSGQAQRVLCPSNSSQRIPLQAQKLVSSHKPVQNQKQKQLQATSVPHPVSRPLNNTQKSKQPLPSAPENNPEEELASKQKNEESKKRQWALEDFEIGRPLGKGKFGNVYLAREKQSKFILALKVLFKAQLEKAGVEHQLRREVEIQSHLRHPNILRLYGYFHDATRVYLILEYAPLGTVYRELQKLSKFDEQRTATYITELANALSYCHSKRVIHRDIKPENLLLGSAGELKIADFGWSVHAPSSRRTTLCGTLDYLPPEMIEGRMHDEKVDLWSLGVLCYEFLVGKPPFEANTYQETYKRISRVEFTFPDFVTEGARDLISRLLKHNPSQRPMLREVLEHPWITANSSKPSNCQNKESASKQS
The experiment in a line: Inhibition assay of Aurora-2 activity (SPA). The settings on record: 10 µM ATP, 60 minutes at room temperature. As for the experimental part: as §1, §2, §3
Inhibition assay of Aurora-2 activity
After 60 minutes at room temperature incubation, reaction was stopped and biotinylated peptide captured by adding 100 µl of bead suspension.
Stratification: 100 µl of CsC12 5 M were added to each well and let stand 4 hour before radioactivity was counted in the Top-Count instrument.
IC50 determination: see above

Structures are written as SMILES. Where a name gives a salt, the structure may show the parent alone.

Cdc7/dbf4, sequence (O00311 whole entry, species assumed): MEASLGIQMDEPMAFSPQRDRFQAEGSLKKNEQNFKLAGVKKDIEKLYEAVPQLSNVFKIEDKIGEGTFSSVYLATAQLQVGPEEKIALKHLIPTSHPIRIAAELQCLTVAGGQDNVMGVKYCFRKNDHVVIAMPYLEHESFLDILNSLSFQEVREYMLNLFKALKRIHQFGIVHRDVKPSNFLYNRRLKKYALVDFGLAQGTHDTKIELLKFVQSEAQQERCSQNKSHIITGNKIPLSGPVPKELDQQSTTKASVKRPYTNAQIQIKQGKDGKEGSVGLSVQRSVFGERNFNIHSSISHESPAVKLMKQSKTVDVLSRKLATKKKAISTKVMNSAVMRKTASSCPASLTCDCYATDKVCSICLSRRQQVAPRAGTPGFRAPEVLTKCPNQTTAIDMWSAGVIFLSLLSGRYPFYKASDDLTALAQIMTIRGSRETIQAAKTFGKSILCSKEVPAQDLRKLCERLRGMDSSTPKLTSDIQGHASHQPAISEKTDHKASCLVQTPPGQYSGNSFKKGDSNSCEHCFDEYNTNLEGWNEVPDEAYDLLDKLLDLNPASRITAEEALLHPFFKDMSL
Cdc7/dbf4, sequence (Q9UBU7 whole entry partner, species assumed): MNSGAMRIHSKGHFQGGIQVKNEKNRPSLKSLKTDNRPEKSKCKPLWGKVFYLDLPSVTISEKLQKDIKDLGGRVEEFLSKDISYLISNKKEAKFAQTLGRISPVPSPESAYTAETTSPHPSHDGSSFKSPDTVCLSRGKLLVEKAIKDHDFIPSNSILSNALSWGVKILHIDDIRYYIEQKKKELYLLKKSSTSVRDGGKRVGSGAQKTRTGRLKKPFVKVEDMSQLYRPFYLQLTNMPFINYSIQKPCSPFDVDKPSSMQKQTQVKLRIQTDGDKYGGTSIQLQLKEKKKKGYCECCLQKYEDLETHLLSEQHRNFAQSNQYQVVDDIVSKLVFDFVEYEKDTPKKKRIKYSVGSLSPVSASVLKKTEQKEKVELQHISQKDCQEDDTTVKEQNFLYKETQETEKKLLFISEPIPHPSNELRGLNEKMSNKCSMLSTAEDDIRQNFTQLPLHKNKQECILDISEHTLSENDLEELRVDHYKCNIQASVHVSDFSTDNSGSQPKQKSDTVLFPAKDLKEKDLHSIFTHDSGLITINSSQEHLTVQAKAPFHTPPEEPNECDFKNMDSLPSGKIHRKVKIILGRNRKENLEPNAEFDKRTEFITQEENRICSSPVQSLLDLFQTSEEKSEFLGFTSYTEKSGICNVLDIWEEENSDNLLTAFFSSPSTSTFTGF
PAK4, sequence (O96013 whole entry, species assumed): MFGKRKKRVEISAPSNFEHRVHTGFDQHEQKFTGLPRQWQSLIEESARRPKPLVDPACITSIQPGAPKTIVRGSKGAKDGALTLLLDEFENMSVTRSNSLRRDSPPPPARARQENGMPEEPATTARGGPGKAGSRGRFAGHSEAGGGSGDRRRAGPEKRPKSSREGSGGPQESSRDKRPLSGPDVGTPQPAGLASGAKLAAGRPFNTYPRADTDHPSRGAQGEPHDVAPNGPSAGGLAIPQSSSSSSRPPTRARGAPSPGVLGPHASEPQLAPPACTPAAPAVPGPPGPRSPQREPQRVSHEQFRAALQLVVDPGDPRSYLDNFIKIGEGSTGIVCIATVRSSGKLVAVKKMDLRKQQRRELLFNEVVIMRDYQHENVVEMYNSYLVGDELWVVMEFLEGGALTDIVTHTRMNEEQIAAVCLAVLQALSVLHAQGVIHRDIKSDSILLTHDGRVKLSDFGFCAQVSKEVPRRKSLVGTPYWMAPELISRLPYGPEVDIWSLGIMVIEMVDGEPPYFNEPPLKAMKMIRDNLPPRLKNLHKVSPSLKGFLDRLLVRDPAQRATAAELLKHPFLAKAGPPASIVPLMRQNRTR

With `CCNC(=O)c1cc2[nH]nc(NC(=O)c3ccc(N4CCN(C)CC4)cc3)c2s1` [Compound 93, N-ethyl-3-{[4-(4-methylpiperazin-1-yl)benzoyl]amino}-1H-thieno[3,2-c]pyrazole-5-carboxamide dihydrochloride], the IC50 in assay [1] is less than 500 nM; in assay [2] it was less than 1000 nM; in assay [3], less than 500 nM.
As to `CN1CCN(c2ccc(C(=O)Nc3n[nH]c4cc(C(=O)NCc5ccc(F)cc5)sc34)cc2)CC1` [Compound 95, N-(4-fluorobenzyl)-3-{[4-(4-methylpiperazin-1-yl)benzoyl]amino}-1H-thieno[3,2-c]pyrazole-5-carboxamide], the half-maximal inhibitory concentration (IC50) in assay [4] is less than 100 nM; in assay [2], less than 1000 nM; in assay [3], less than 500 nM.
The matching figures for `CN1CCN(c2ccc(C(=O)Nc3n[nH]c4cc(C(=O)NCc5ccccc5F)sc34)cc2)CC1` [Compound 101, N-(2-fluorobenzyl)-3-{[4-(4-methylpiperazin-1-yl)benzoyl]amino}-1H-thieno[3,2-c]pyrazole-5-carboxamide]: less than 100 nM, less than 1000 nM and less than 500 nM.
The matching figures for `CN1CCN(c2ccc(C(=O)Nc3n[nH]c4cc(C(=O)NCc5ccc(F)cc5F)sc34)cc2)CC1` [Compound 102, N-(2,4-difluorobenzyl)-3-{[4-(4-methylpiperazin-1-yl)benzoyl]amino}-1H-thieno[3,2-c]pyrazole-5-carboxamide]: less than 100 nM, less than 1000 nM and less than 500 nM.
In the case of `CN1CCN(c2ccc(C(=O)Nc3n[nH]c4cc(C(=O)NCc5ccco5)sc34)cc2)CC1` [Compound 114, N-(2-furylmethyl)-3-{[4-(4-methylpiperazin-1-yl)benzoyl]amino}-1H-thieno[3,2-c]pyrazole-5-carboxamide], the IC50 in assay [4] was less than 100 nM; in assay [1], less than 500 nM; in assay [2], less than 1000 nM; in assay [3], less than 500 nM.
Consider `CN1CCN(c2ccc(C(=O)Nc3n[nH]c4cc(C(=O)NCc5cccs5)sc34)cc2)CC1` [Compound 115, 3-{[4-(4-methylpiperazin-1-yl)benzoyl]amino}-N-(thien-2-ylmethyl)-1H-thieno[3,2-c]pyrazole-5-carboxamide], for which the concentration for half-maximal inhibition (IC50) in assay [4] was less than 100 nM; in assay [2], less than 1000 nM; in assay [3] it was less than 500 nM.

For orientation: IC50 means the concentration needed to halve the response being measured.

The values are drawn from patent EP1534716B1, “HETEROBICYCLIC PYRAZOLE DERIVATIVES AS KINASE INHIBITORS” (priority 2002, dated 2004).
